Experimental data as given in ChEMBL document CHEMBL1649074, “Aurora kinase inhibitors based on the imidazo[1,2-a]pyrazine core: fluorine and deuterium incorporation improve oral absorption and exposure” (J Med Chem, 2011).

Columns and labels:
[1] = target: T1, Calcium/calmodulin-dependent protein kinase type IV (Homo sapiens, UniProt Q16566); assay: Inhibition of CAMK4
T1 sequence (Q16566 whole entry): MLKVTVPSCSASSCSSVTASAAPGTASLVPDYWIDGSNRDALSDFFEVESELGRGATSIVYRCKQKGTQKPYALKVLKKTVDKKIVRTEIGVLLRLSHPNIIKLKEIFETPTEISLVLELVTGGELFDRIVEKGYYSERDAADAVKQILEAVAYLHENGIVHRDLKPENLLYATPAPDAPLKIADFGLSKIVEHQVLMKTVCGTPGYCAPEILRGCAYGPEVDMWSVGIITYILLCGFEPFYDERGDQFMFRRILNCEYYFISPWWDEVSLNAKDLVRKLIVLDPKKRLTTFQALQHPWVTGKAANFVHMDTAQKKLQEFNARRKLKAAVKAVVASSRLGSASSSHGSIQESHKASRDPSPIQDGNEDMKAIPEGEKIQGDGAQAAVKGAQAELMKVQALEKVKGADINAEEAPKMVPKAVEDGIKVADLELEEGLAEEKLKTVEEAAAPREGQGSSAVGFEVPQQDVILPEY

[2] = target: Cyclin-dependent kinase 2 (Homo sapiens, UniProt P24941); assay: Inhibition of CDK2
Ephrin type-B receptor 4 = target: T2, Ephrin type-B receptor 4 (Homo sapiens, UniProt P54760); assay: Inhibition of EPHB4
T2 sequence (P54760 whole entry): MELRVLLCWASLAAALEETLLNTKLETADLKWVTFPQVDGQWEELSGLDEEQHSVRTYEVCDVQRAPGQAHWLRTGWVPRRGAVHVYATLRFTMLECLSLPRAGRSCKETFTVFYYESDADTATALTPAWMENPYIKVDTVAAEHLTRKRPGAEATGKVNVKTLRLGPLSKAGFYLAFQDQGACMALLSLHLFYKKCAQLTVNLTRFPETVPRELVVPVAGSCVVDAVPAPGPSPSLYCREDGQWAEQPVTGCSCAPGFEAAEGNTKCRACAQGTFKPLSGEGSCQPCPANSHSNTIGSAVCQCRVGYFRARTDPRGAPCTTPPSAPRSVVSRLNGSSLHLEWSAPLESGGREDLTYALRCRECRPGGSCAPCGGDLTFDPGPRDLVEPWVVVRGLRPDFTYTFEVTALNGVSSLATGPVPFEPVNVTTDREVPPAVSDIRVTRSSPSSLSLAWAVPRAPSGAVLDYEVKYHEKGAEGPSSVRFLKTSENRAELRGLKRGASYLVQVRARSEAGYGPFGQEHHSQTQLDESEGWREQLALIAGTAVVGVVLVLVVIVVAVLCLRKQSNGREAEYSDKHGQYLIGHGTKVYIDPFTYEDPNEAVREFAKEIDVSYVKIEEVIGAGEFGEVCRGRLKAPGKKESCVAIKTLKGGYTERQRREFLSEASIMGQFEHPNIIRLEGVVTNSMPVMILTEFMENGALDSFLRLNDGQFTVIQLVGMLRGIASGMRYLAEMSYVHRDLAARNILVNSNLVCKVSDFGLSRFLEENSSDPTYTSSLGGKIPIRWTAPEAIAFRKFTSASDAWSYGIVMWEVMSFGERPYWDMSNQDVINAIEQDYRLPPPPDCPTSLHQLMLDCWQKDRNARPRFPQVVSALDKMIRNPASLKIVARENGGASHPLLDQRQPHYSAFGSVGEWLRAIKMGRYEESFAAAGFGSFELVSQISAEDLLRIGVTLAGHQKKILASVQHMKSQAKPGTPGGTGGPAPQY

[3] = target: Mitogen-activated protein kinase 1 (Homo sapiens, UniProt P28482); assay: Inhibition of ERK2
[4] = target: Vascular endothelial growth factor receptor 2 (Homo sapiens, UniProt P35968); assay: Inhibition of KDR
[5] = target: T3, Receptor-type tyrosine-protein kinase FLT3 (Homo sapiens, UniProt P36888); assay: Inhibition of FLT3
T3 sequence (P36888 whole entry): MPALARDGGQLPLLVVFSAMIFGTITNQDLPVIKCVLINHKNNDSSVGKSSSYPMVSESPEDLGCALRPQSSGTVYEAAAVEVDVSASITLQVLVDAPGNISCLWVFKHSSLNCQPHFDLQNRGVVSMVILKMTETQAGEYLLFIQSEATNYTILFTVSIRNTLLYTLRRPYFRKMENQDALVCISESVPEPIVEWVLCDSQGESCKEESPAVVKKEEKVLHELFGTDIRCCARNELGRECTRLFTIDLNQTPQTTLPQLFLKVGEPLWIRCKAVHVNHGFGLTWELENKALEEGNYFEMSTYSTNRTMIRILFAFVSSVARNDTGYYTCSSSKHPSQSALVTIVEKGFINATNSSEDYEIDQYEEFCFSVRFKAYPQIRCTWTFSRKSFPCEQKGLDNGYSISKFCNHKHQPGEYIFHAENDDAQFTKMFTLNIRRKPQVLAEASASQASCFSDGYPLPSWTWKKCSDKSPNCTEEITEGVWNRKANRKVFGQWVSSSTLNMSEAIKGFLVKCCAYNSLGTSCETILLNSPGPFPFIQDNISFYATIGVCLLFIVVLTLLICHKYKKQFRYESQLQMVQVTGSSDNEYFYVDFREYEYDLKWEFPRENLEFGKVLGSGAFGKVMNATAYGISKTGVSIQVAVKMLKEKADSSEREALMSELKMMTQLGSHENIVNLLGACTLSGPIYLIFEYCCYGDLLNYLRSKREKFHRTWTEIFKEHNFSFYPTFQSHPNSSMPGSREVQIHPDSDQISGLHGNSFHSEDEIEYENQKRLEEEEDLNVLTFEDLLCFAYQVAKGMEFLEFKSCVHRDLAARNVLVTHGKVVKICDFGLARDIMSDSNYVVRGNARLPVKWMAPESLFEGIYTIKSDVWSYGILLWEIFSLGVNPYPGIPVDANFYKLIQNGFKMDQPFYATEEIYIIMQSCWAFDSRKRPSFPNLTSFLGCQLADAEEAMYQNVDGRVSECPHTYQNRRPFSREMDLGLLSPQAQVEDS

[6] = target: RAC-alpha serine/threonine-protein kinase (Homo sapiens, UniProt P31749); assay: Inhibition of AKT1
Aurora kinase B = Aurora kinase B (Homo sapiens, UniProt Q96GD4); assay: Inhibition of Aurora B
Sequence of Aurora kinase B (Q96GD4 whole entry): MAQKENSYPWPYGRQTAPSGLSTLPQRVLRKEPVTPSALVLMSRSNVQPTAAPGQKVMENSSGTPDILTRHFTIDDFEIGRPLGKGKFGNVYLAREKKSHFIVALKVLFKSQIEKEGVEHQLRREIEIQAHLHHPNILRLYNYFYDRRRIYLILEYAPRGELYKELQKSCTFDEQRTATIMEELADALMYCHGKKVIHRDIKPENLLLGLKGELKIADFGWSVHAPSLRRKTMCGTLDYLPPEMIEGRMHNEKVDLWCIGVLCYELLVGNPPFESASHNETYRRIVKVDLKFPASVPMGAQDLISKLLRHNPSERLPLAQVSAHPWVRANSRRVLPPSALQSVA

Sequence of RAC-alpha serine/threonine-protein kinase (P31749 whole entry): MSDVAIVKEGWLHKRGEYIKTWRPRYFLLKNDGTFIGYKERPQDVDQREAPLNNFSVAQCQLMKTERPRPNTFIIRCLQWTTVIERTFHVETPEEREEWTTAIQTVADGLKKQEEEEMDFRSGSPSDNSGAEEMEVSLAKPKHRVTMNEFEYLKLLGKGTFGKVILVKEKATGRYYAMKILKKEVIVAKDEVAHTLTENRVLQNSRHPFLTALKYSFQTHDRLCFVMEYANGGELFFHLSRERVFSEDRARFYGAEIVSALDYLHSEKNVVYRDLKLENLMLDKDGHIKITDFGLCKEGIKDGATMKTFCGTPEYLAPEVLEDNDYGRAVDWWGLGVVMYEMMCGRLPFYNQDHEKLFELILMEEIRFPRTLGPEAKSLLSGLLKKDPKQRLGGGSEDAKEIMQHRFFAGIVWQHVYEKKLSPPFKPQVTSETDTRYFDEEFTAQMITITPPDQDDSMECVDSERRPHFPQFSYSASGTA
Sequence of Mitogen-activated protein kinase 1 (P28482 whole entry): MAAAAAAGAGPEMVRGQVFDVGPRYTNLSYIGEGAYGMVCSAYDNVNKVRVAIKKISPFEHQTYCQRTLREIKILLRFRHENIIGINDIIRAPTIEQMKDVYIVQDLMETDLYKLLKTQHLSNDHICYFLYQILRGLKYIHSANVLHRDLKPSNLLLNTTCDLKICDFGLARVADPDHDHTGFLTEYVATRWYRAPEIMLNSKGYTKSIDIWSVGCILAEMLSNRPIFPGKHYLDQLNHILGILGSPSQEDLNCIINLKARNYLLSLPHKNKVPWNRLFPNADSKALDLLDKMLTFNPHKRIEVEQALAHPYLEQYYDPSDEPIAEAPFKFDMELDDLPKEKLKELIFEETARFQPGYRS
Sequence of Vascular endothelial growth factor receptor 2 (P35968 whole entry): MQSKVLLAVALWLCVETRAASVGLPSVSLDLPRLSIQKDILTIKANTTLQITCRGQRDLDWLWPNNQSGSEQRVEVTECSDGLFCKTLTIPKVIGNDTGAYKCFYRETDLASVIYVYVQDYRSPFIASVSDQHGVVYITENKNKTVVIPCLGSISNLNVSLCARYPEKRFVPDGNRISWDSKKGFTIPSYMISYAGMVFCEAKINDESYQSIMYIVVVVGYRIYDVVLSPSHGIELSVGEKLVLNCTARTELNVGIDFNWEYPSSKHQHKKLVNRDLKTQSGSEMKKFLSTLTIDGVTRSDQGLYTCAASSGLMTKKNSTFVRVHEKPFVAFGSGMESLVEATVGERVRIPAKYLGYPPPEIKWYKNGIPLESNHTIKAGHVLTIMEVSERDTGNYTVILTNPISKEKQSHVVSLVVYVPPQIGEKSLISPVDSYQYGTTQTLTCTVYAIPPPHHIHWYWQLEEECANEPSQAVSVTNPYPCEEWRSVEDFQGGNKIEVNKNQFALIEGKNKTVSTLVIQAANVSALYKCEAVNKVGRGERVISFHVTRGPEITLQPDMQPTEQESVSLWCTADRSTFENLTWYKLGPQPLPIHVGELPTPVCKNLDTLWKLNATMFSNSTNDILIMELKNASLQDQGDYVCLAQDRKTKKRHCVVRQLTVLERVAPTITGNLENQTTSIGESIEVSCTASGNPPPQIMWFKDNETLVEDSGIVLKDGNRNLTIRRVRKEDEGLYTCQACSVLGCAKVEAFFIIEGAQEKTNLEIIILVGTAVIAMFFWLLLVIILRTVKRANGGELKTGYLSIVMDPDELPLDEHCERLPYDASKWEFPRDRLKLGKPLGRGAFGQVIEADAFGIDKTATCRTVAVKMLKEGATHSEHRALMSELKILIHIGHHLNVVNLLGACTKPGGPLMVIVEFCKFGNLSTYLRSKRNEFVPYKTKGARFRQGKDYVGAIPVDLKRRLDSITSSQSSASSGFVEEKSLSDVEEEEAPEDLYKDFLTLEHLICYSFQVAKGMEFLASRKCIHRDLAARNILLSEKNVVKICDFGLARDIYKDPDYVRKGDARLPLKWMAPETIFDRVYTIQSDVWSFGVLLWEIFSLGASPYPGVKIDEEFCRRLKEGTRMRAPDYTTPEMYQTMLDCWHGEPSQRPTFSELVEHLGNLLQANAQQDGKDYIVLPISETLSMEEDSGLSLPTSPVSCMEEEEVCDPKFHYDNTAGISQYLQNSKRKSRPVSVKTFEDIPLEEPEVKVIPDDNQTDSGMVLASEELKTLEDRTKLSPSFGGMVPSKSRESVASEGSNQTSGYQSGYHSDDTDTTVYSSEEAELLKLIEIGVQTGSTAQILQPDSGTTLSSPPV

Row | SMILES | IC50 [1] | IC50 [2] | IC50 (Ephrin type-B receptor 4) | IC50 [3] | IC50 [4] | IC50 [5] | IC50 [6] | IC50 (Aurora kinase B)
1 | Cc1cn2c(-c3cn[nH]c3)cnc2c(Nc2cc(CN3CCC(F)(F)C3)ns2)n1.Cl | > 100 nM | > 100 nM | 770 nM | > 100 nM | 550 nM | 76 nM | > 100 nM | ≤ 13 nM
2 | CCN(Cc1cc(Nc2nc(C)cn3c(-c4cn[nH]c4)cnc23)sn1)C(C)(C)CO | > 100 nM | > 100 nM | 100 nM | > 100 nM | < 1 nM | 5 nM | > 100 nM | ≤ 13 nM
3 | Cl.[2H]C([2H])(c1cc(Nc2nc(C)cn3c(-c4cn[nH]c4)cnc23)sn1)N1CCC(F)(F)C1 | > 100 nM | > 100 nM | 700 nM | > 100 nM | 340 nM | 46 nM | > 100 nM | ≤ 13 nM
